Results taken from patent publication US5236912A, “Antiandrogenic [3,2-c]pyrazole and [3,2-d]triazole steroids” (Schering Aktiengesellschaft, priority 1990, dated 1993).
Values joined by “and” are separate entries in the source; they are usually repeats but may differ in a detail not shown here. Identical values can stand only once.

How the values were obtained:
[1] = test system: orchiectomized, testosterone propionate-substituted rats; experiment: classical antiandrogen test on orchiectomized, testosterone propionate-substituted rats (inhibition of prostate weight); assay type: in vivo; conditions: 3 mg s.c.; for Antiandrogen Test: % Inhibition of Prostate Weight: orchiectomized, testosterone propionate-substituted rats (0.1 mg/animal/day), seven day treatment
Procedure: These two compounds, the classical antiandrogen test on orchiectomized, testosterone propionate-substituted rats (dose: 0.1 mg/animal/day) show, after a seven day treatment (s.c.) with 3 mg/animal/day) of the antiandrogen, merely about 30% of the antiandrogenic potency of cyproterone acetate (17α-acetoxy-6-chlor-1α,2α-methylene-4,6-pregnadiene-3,20-dione) which constitutes the standard antiandrogen (Friedmund Neumann, Rudolf Wiechert, "Die Geschichte von Cyproteronacetat, Ungewoehnliche Wege bei der Entwicklung eines Arzneimittels" [The History of Cyproterone Acetate, the Development of a Medicine Along Unusual Routes], MPS Medizinisch-Pharmazeutische Studiengesellschaft e.V. [Association for Medical-Pharmaceutical Studies] Mainz, Mainz (1984).

testosterone levels [2] = experiment: peripheral selectivity / counter regulation: testosterone levels in rats after administration of the compound; assay type: in vivo; conditions: for Counter Regulation: testosterone levels 24 hours after 10 mg s.c., lack of counter regulation = peripheral selectivity
Procedure: In order to test peripheral selectively, the testosterone levels are measured in rats 24 hours after administration of 10 mg s.c. of the compound: lack of counter regulation is evaluated as peripheral selectively.

testosterone levels [3] = conditions: in words, background statement; cited from earlier work
[4] = test system: orchiectomized, testosterone propionate-substituted rats; conditions: compound described in EP 0 207 375 A1; cited from earlier work

SMILES	Antiandrogen Test: % Inhibition of Prostate Weight [1]	Counter Regulation (testosterone levels [2])	effect on the hypothalamus-hypophysis system (testosterone levels [3])	Antiandrogen Test: % Inhibition of Prostate Weight, comparison Cyproterone Acetate (value in parentheses) ([1]; cyproterone acetate comparison value)	antiandrogen activity compared with cyproterone acetate [4]	testosterone level in the serum (testosterone levels [2]; central effect (counter regulation by feedback))	peripheral selectivity (testosterone levels [2]; lack of counter regulation is evaluated as peripheral selectivity)
CC12Cc3cn(S(C)(=O)=O)nc3C=C1CCC1C2CCC2(C)C1C=CC2(C)O (stereo not drawn) [A, 1'-mesyl-17α-methyl-1'H-androsta-4,15-dieno[3,2-c]pyrazol-17β-ol]	80%	No	–	–	–	–	–
CC12Cc3cn(S(C)(=O)=O)nc3C=C1C1(CC1)CC1C2CCC2(C)C1CCC2(C)O (stereo not drawn) [B, 6,6-ethylene-1'-mesyl-17α-methyl-1'H-androst-4-eno[3,2-c]pyrazol-17β-ol]	73%	No	–	–	–	–	–
CC1CC2=Cc3nn(S(C)(=O)=O)cc3CC2(C)C2CCC3(C)C(CCC3(C)O)C12 (stereo not drawn) [C, 7α,17α-dimethyl-1'-mesyl-1'H-androst-4-eno[3,2-c]pyrazol-17β-ol]	53%	No	–	–	–	–	–
CC(=O)O[C@]1(C(C)=O)CC[C@H]2[C@@H]3C=C(Cl)C4=CC(=O)[C@@H]5C[C@@H]5[C@]4(C)[C@H]3CC[C@@]21C [Cyproterone Acetate, 17α-acetoxy-6-chlor-1α,2α-methylene-4,6-pregnadiene-3,20-dione]	–	–	affecting, as does the latter compound, the hypothalamus-hypophysis system	97% and 86% and 87% and 95% and 100%	–	–	–
CC12Cc3nn(S(C)(=O)=O)nc3C=C1CCC1C2CCC2(C)C1C=CC2(C)O (stereo not drawn) [D, 2'-mesyl-17α-methyl-2'H-triazolo[4',5':2,3]androsta-4,15-dien-17β-ol]	97%	No	–	–	–	–	–
CC1=C2CCC3C(CCC4(C)C3CCC4(C)O)C2(C)Cc2cn(S(C)(=O)=O)nc21 (stereo not drawn) [E, 4,17α-dimethyl-1'-mesyl-1'H-androst-4-eno[3,2-c]pyrazol-17β-ol]	88%	Yes	–	–	comparable to cyproterone acetate	raises the testosterone level in the serum	no peripheral selectivity
